The experiment has as its system human TAP. Nature of the experiment: NADH-coupled steady-state ATP hydrolysis (ATPase) assay of purified TAP. The class given is biochemical. The conditions noted are these: 28 °C; for Stimulation of ATP hydrolysis by shortened b27 peptides: TAP 0.5 µM, peptides 20 µM, ATP 3 mM, means of three technical replicates of three biological replicates (n = 9), one-way ANOVA, Fig. 4A. As for the experimental part: Steady-state ATP hydrolysis activity was measured using a nicotinamide adenine dinucleotide (NADH)-coupled assay. Purified TAP was diluted to a final concentration of 0.5 µM in freshly prepared reaction buffer containing 50 mM HEPES (pH 8.0 with KOH), 150 mM KCl, 2 mM MgCl2, 2 mM DTT, 0.004% (w/v) digitonin, 60 µg mL^−1 pyruvate kinase (Roche), 32 µg mL^−1 lactate dehydrogenase (Roche), 9 mM phosphoenolpyruvate and 150 µM NADH. Peptide substrates were added to a final concentration of 20 µM unless specified otherwise. Then, 30 µL aliquots were dispensed into Corning 384-well Black/Clear Flat Bottom Polystyrene NBS Microplates, and reactions were initiated by the addition of 3 mM ATP. NADH consumption was measured by monitoring the rate of NADH fluorescence depletion at λex = 340 nm and λem = 445 nm at 28 °C using an Infinite M1000 microplate reader (Tecan). Data were converted to ATP turnover with an NADH standard curve. Technical replicates were measured in parallel from the same protein preparation on the same day and biological replicates were measured from different protein preparations from different cells on different days.

Take “b27″(Q): 7-mer modified b27 peptide lacking the lysine and the adjacent serine (RRYQTEL)”: the “Stimulation of ATP hydrolysis by shortened b27 peptides” value (“Stimulation of ATP hydrolysis” for short) was “neither of the 7-mer peptides were able to stimulate ATP hydrolysis and not”. On to “RRYSTEL [b27″, 7-mer modified b27 peptide lacking the lysine and the adjacent glutamine]”, for which the “Stimulation of ATP hydrolysis” value is “neither of the 7-mer peptides were able to stimulate ATP hydrolysis and not”. As to “b27: 9-mer peptide RRYQKSTEL, well-characterized substrate transported by TAP and presented by HLA-B27 [reference compound]”, the “ATPase activity as a function of b27 concentration” value (0.5 µM TAP, 3 mM ATP, pH 8.0, three technical replicates (n = 3), Fig. 1B) is given as “stimulated in a dose-dependent manner”. As for “RRYQSTEL [b27′, 8-mer modified b27 peptide lacking the central lysine at position five]”, the “Stimulation of ATP hydrolysis” value is given as “stimulated ATP hydrolysis”. For the same substance, the “Stimulation of ATP hydrolysis” value (listed as B27′) was “increased the ATPase activity of TAP to a slightly greater extend compared to b27”.

These data come from publication PMC11161800, “Principles of peptide selection by the transporter associated with antigen processing” (Proceedings of the National Academy of Sciences of the …, 2024).
